{
  "source": "BindingDB's records for doi:10.1021/acschembio.6b00782",
  "about": "(University of Michigan, 2017)",
  "key": {"[1]": {"molecular_target": "T1, Paired box protein Pax-2 [1-81] (Human, UniProt Q02962)", "T1 construct": "1-81", "T1 sequence (Q02962 1-81)": "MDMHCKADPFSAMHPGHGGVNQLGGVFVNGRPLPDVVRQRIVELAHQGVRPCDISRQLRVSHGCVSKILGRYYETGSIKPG", "test": "Biolayer Interferometry Binding Assay", "protocol": "(§1) After biotinylation, the protein was bound to saturation to the biosensor of an Octet RED Multichannel platform (ForteBio). All binding and equilibration was done in PBS with 0.1% DMSO. For binding to the compound, sensors were incubated for 300s in EG1 at the following concentrations: 0.5, 1, 2, 4, 8, 16, 31, 62, 125, and 250 μM. Disassociation was then measured for 350 s in PBS to determine affinity constants. Kd is calculated from Kon and Koff."}, "[2]": {"molecular_target": "T1, Paired box protein Pax-2 [1-81]", "test": "Biolayer Interferometry Binding Assay", "protocol": "as §1, with “steady state analysis.” for “Kon and Koff.”", "remark": "listed apart in the source"}},
  "data": [
    {"smiles": "COc1ccccc1C(=O)Nc1ccc(C(=O)Nc2ccccc2C(=O)O)cc1", "note": "[EG1]", "values": [
      {"measurement": "Kd", "setting": "[1]", "value": 1350, "unit": "nM"},
      {"measurement": "Kd", "setting": "[2]", "value": 1500, "unit": "nM"}
    ]}
  ]
}
